Results taken from ChEMBL document CHEMBL5260845, “Flavone-based arylamides as potential anticancers: Design, synthesis and in vitro cell-based/cell-free evaluations” (2020).
The source made the active and inactive calls. No cut-off for these calls is given here.

Legend:
[1] = system: SK-MEL-28; experiment: Antiproliferative activity against human SK-MEL-28 cells assessed as cell growth inhibition at 10 uM by SRB assay relative to control; assay type: functional
[2] = system: Malme-3M; experiment: Antiproliferative activity against human Malme-3M cells assessed as cell growth inhibition at 10 uM by SRB assay relative to control; assay type: functional
[3] = system: RPMI-8226; experiment: Antiproliferative activity against human RPMI-8226 cells assessed as cell growth inhibition at 10 uM by SRB assay relative to control; assay type: functional
[4] = system: A549; experiment: Antiproliferative activity against human A549 cells assessed as cell growth inhibition at 10 uM by SRB assay; assay type: functional, cell-based
[5] = system: NCI-H226; experiment: Antiproliferative activity against human NCI-H226 cells assessed as cell growth inhibition at 10 uM by SRB assay; assay type: functional
[6] = system: NCI-H23; experiment: Antiproliferative activity against human NCI-H23 cells assessed as cell growth inhibition at 10 uM by SRB assay; assay type: functional
[7] = system: HOP-62; experiment: Antiproliferative activity against human HOP-62 cells assessed as cell growth inhibition at 10 uM by SRB assay relative to control; assay type: functional
[8] = system: NCI-H460; experiment: Antiproliferative activity against human NCI-H460 cells assessed as cell growth inhibition at 10 uM by SRB assay relative to control; assay type: functional
[9] = system: COLO 205; experiment: Antiproliferative activity against human COLO 205 cells assessed as cell growth inhibition at 10 uM by SRB assay; assay type: functional, cell-based
[10] = system: HCC 2998; experiment: Antiproliferative activity against human HCC 2998 cells assessed as cell growth inhibition at 10 uM by SRB assay; assay type: functional, cell-based
[11] = system: HCT-116; experiment: Antiproliferative activity against human HCT-116 cells assessed as cell growth inhibition at 10 uM by SRB assay; assay type: functional, cell-based
[12] = system: HCT-15; experiment: Antiproliferative activity against human HCT-15 cells assessed as cell growth inhibition at 10 uM by SRB assay; assay type: functional, cell-based
[13] = system: HT-29; experiment: Antiproliferative activity against human HT-29 cells assessed as cell growth inhibition at 10 uM by SRB assay; assay type: functional, cell-based
[14] = system: KM12; experiment: Antiproliferative activity against human KM12 cells assessed as cell growth inhibition at 10 uM by SRB assay; assay type: functional, cell-based
[15] = system: SW-620; experiment: Antiproliferative activity against human SW620 cells assessed as cell growth inhibition at 10 uM by SRB assay; assay type: functional, cell-based
[16] = system: UACC-62; experiment: Antiproliferative activity against human UACC-62 cells assessed as cell growth inhibition at 10 uM by SRB assay relative to control; assay type: functional
[17] = system: OVCAR-4; experiment: Antiproliferative activity against human OVCAR-4 cells assessed as cell growth inhibition at 10 uM by SRB assay relative to control; assay type: functional
[18] = system: OVCAR-8; experiment: Antiproliferative activity against human OVCAR-8 cells assessed as cell growth inhibition at 10 uM by SRB assay relative to control; assay type: functional
[19] = system: DU-145; experiment: Antiproliferative activity against human DU-145 cells assessed as inhibition of cell growth at 10 uM by SRB assay relative to control; assay type: functional
[20] = system: PC-3; experiment: Antiproliferative activity against human PC-3 cells assessed as inhibition of cell growth at 10 uM by SRB assay relative to control; assay type: functional
[21] = system: Lung cancer cell line; experiment: Antiproliferative activity against human lung cancer cells assessed as cell growth inhibition at 10 uM by SRB assay relative to control; assay type: functional
[22] = system: Prostatic carcinoma cell; experiment: Antiproliferative activity against human prostatic carcinoma cells assessed as cell growth inhibition at 10 uM by SRB assay relative to control; assay type: functional
[23] = system: Ovarian cancer cell line; experiment: Antiproliferative activity against human ovarian cancer cells assessed as cell growth inhibition at 10 uM by SRB assay relative to control; assay type: functional

COc1cc2oc(-c3cccc(C(=O)Nc4ccc(C#N)cc4)c3)cc(=O)c2c(O)c1OC
inhibition at 10 µM [1]: 67.2% | inhibition at 10 µM [2]: 52.3% | inhibition at 10 µM [3]: 82.6% | inhibition [4]: Active | inhibition [5]: Active | inhibition [6]: Active | inhibition at 10 µM [7]: 31.8% | inhibition at 10 µM [8]: 81.1% | inhibition [9]: Active | inhibition [10]: Active | inhibition [11]: Active | inhibition [12]: Active | inhibition [13]: Active | inhibition [14]: Active | inhibition [15]: Active | inhibition at 10 µM [16]: 50.5% | inhibition at 10 µM [17]: 88.3% | inhibition at 10 µM [18]: 70.9% | inhibition at 10 µM [19]: 65.8% | inhibition at 10 µM [20]: 92.1% | inhibition at 10 µM [21]: > 50% | inhibition at 10 µM [22]: > 50% | inhibition at 10 µM [23]: > 50%
